Experimental findings from patent US12644133B2, “Methods and compositions to increase somatic cell nuclear transfer (SCNT) efficiency by removing histone H3-lysine trimethylation” (The Children's Medical Center Corporation, priority 2014, dated 2026) are described below.

This series deals with H3K9me3. Description: Immunostaining of H3K9me3 in SCNT embryos. The series is classed as cell-based, mouse. Particulars: mRNA injected at 5 hpa; cumulus donor cells. The method, then: Somatic cell nuclear transfer was carried out as described previously (Matoba et al., 2011). Briefly, recipient MII oocytes were collected from superovulated adult BDF1 females by brief treatment with 300 U/ml bovine testicular hyaluronidase (Calbiochem). Isolated MII oocytes were enucleated in Hepes-buffered KSOM medium containing 7.5 μg/ml of cytochalasin B (Calbiochem #250233). The nuclei of donor cumulus cells or Sertoli cells were injected into the enucleated oocytes using a Piezo-driven micromanipulator (Primetech #PMM-150FU). MEF cells were fused with enucleated oocytes by inactivated Sendai virus envelope (HVJ-E; Ishihara Sangyo, Japan). After 1 h incubation in KSOM, reconstructed SCNT oocytes were activated by incubation in Ca-free KSOM containing 5 μg/ml cytochalasin B for 1 h and further cultured in KSOM with cytochalasin B for 4 h. Activated SCNT embryos were washed 5 h after the onset of SrCl2 treatment (hours post activation, hpa) and cultured in KSOM in a humidified atmosphere of 5% CO2 at 37.8° C. In some experiments, SCNT embryos were injected with ˜10 pl of water (control), 1800 ng/μl wild-type or mutant (H189A) Kdm4d mRNA at 5-6 hpa by using a Piezo-driven micromanipulator (Primetech). […] Preimplantation developmental rates were statistically analyzed by Student's T-test. […]

With “Kdm4d WT mRNA: in vitro transcribed full length mouse Kdm4d mRNA, encoding an H3K9me3-specific histone demethylase”, the “reduction of H3K9me3 levels in SCNT embryos (in words)” value is recorded as “greatly reduced H3K9me3 levels”.
